Assay results published in the supplement of paper PMC5752671.
Counter-ions that a name gives are not always drawn.

Experiments:
Settings in all cases: 4 days
[1] = system: KASUMI1; assay: area under dose-response curve (cell viability) (AUC (arbitrary, % viability x log concentration)); higher = less sensitive (more viable)
Summary of the method: (§1)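 After overnight plating on extracellular-matrix-coated 384-well plates, fourteen leukemia cell lines received drugs by robot in duplicate at eight per-drug concentrations spanning 4–5 logs within 10^–12–10^–4 M. CellTiter-Glo was used to read viability 4 days later, and a four-parameter sigmoid was fitted to the mean of the duplicates. The reported figure is the area under this curve.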

[2] = system: U937; assay: as above
Summary of the method: as §1

[3] = system: MOLM/13; assay: as above
Summary of the method: as §1

[4] = system: HL60; assay: as above
Summary of the method: as §1

[5] = system: KG1; assay: as above
Summary of the method: as §1

[6] = system: MV4.11; assay: as above
Summary of the method: as §1

[7] = system: MOLM/16; assay: IC50 (cell viability) (log10 M)
Summary of the method: (§2)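 Drugs were dispensed robotically in duplicate onto fourteen leukemia cell lines plated a day earlier on 384-well plates with an extracellular matrix coating, at eight concentrations covering 4–5 logs inside the 10^–12–10^–4 M range, set for each drug. CellTiter-Glo was used to read viability after 4 days. Each IC50 in the table comes from a fitted curve. It is given as the concentration in log10 M where a four-parameter curve crosses 50% viability, or as the highest tested concentration when the curve never reaches that level.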

[8] = system: KASUMI1; assay: IC50 (cell viability) (log10 M)
Summary of the method: as §2

[9] = system: U937; assay: IC50 (cell viability) (log10 M)
Summary of the method: as §2

[10] = system: EOL-1; assay: IC50 (cell viability) (log10 M)
Summary of the method: as §2

[11] = system: NB4; assay: IC50 (cell viability) (log10 M)
Summary of the method: as §2

[12] = system: THP-1; assay: IC50 (cell viability) (log10 M)
Summary of the method: as §2

[13] = system: OCI-AML2; assay: IC50 (cell viability) (log10 M)
Summary of the method: as §2

[14] = system: SKM1; assay: IC50 (cell viability) (log10 M)
Summary of the method: as §2

[15] = system: OCI-AML3; assay: IC50 (cell viability) (log10 M)
Summary of the method: as §2

[16] = system: MOLM/13; assay: IC50 (cell viability) (log10 M)
Summary of the method: as §2

[17] = system: HL60; assay: IC50 (cell viability) (log10 M)
Summary of the method: as §2

[18] = system: PL-21; assay: IC50 (cell viability) (log10 M)
Summary of the method: as §2

[19] = system: KG1; assay: IC50 (cell viability) (log10 M)
Summary of the method: as §2

[20] = system: MV4.11; assay: IC50 (cell viability) (log10 M)
Summary of the method: as §2

Row | IC50 (log10 M) [7] | IC50 (log10 M) [9] | IC50 (log10 M) [12] | IC50 (log10 M) [13] | IC50 (log10 M) [14] | IC50 (log10 M) [15] | IC50 (log10 M) [16] | IC50 (log10 M) [17] | IC50 (log10 M) [20] | Compound | area under dose-response curve [1] | area under dose-response curve [2] | area under dose-response curve [3] | area under dose-response curve [4] | area under dose-response curve [5] | area under dose-response curve [6] | IC50 (log10 M) [8] | IC50 (log10 M) [10] | IC50 (log10 M) [11] | IC50 (log10 M) [18] | IC50 (log10 M) [19]
1 | > -5 | > -5 | > -5 | > -5 | > -5 | > -5 | > -5 | > -5 | > -5 | c1cc(-c2sc(-c3ccncc3)c(-c3ccncc3)c2-c2ccncc2)ccn1 [GANT58] | 704 | 630 | 643 | 733 | 691 | 671 | > -5 | > -5 | > -5 | > -5 | > -5
2 | < -8.48 | < -8.48 | < -8.48 | -7.51 | > -5 | -7.95 | -7.95 | > -5 | -7.92 | COc1cc(Nc2ncc3c(n2)-c2ccc(Cl)cc2C(c2c(F)cccc2OC)=NC3)ccc1C(=O)O [MLN8237] | 452 | 254 | 306 | 467 | 441 | 279 | -7.53 | < -8.48 | -8.21 | -7.95 | -7.99
3 | -5.44 | > -5 | > -5 | -5.38 | -5.56 | > -5 | > -5 | -6.31 | > -5 | C[C@]1(O)C[C@@H](c2nc(-c3ccc4ccc(-c5ccccc5)nc4c3)c3c(N)nccn32)C1 [OSI-906] | 503 | 631 | 616 | 481 | 594 | 641 | -5.67 | -5.74 | -5.56 | -6.24 | > -5
4 | > -5 | > -5 | > -5 | > -5 | > -5 | > -5 | > -5 | > -5 | > -5 | CSCC[C@H](NC(=O)c1ccc(NC[C@@H](N)CS)cc1-c1ccccc1)C(=O)O [FTI-276] | 722 | 658 | 641 | 753 | 768 | 641 | > -5 | > -5 | > -5 | > -5 | > -5
5 | -6.66 | -6.28 | -5.85 | -5.73 | -5.68 | -6.16 | -5.97 | -5.4 | -6.48 | COc1cccc2cc(-c3nc([C@H]4CC[C@H](C(=O)O)CC4)n4ncnc(N)c34)[nH]c12 [OSI-027] | 521 | 489 | 516 | 576 | 383 | 499 | -5.9 | -8.18 | -5.52 | -6.24 | -5.26
6 | -6.39 | -6.16 | -6.33 | -6.99 | -6.03 | > -6 | -7.19 | -6.72 | -7.76 | CN(C)CC[C@H](CSc1ccccc1)Nc1ccc(S(=O)(=O)NC(=O)c2ccc(N3CCN(Cc4ccccc4-c4ccc(Cl)cc4)CC3)cc2)cc1[N+](=O)[O-] [ABT-737] | 403 | 546 | 395 | 457 | 497 | 342 | -7.03 | -7.89 | > -6 | -6 | -6.4

The remaining lines, values behind:

Row | Compound | IC50 (log10 M) [7] | IC50 (log10 M) [9] | IC50 (log10 M) [12] | IC50 (log10 M) [13] | IC50 (log10 M) [14] | IC50 (log10 M) [15] | IC50 (log10 M) [16] | IC50 (log10 M) [17] | IC50 (log10 M) [20] | area under dose-response curve [1] | area under dose-response curve [2] | area under dose-response curve [3] | area under dose-response curve [4] | area under dose-response curve [5] | area under dose-response curve [6] | IC50 (log10 M) [8] | IC50 (log10 M) [10] | IC50 (log10 M) [11] | IC50 (log10 M) [18] | IC50 (log10 M) [19]
7 | Cn1cc(C2=C(c3cn(C4CCN(Cc5ccccn5)CC4)c4ccccc34)C(=O)NC2=O)c2ccccc21 [Enzastaurin] | > -5 | > -5 | > -5 | > -5 | > -5 | > -5 | > -5 | > -5 | -5.11 | 700 | 694 | 650 | 745 | 734 | 690 | > -5 | > -5 | > -5 | > -5 | > -5
8 | C[C@@]1(C(=O)Nc2ccc(F)nc2)CCCN1c1nc(Nc2cc(C3CC3)n[nH]2)c2cccn2n1 | -6.78 | -6.61 | -5.79 | -6.15 | -6.18 | -5.81 | -6.18 | -7.3 | -6.27 | 405 | 552 | 565 | 373 | 510 | 570 | -6.88 | -6.59 | -6.61 | -7.16 | -6.35
9 | NC(=O)c1ccc2nc(-c3ccc(Oc4ccc(Cl)cc4)cc3)[nH]c2c1 [BML 277] | -5.35 | > -5 | > -5 | > -5 | > -5 | > -5 | > -5 | > -5 | > -5 | 735 | 655 | 682 | 739 | 683 | 715 | > -5 | -5.36 | > -5 | > -5 | > -5
10 | O=C(O)C1(C(=O)O)CCC1.[NH2-].[NH2-].[Pt+2] [Carboplatin] | > -5 | > -5 | -5.04 | -5.37 | > -5 | > -5 | > -5 | > -5 | -5.34 | 749 | 700 | 684 | 751 | 726 | 631 | > -5 | -5.16 | > -5 | > -5 | > -5
11 | CN1CCC(COc2cnc(-c3cccc(Cn4nc(-c5cccc(C#N)c5)ccc4=O)c3)nc2)CC1 | > -5 | > -5 | > -5 | > -5 | > -5 | > -5 | > -5 | > -5 | > -5 | 715 | 700 | 645 | 729 | 668 | 688 | > -5 | > -5 | > -5 | > -5 | > -5
12 | O=C(c1cc(Cc2n[nH]c(=O)c3ccccc23)ccc1F)N1CCN(C(=O)C2CC2)CC1 [Olaparib] | -5.12 | > -5 | -5.34 | -5.5 | > -5 | > -5 | -5.32 | > -5 | -5.65 | 639 | 632 | 530 | 657 | 646 | 500 | > -5 | -5.64 | -5.1 | > -5 | > -5
13 | CN(C)CCCn1cc(C2=C(c3c[nH]c4ccccc34)C(=O)NC2=O)c2ccccc21 | -5.55 | > -5 | > -5 | -5.41 | -5.35 | > -5 | -5.97 | > -5 | -6.66 | 647 | 694 | 534 | 710 | 608 | 500 | -5.1 | -6.69 | > -5 | -5.04 | > -5
14 | CCc1cccc2c3c([nH]c12)C(CC)(CC(=O)O)OCC3 (stereo not given) [Etodolac] | > -5 | > -5 | > -5 | > -5 | > -5 | > -5 | > -5 | > -5 | > -5 | 678 | 682 | 654 | 694 | 707 | 705 | > -5 | > -5 | > -5 | > -5 | > -5
15 | Nc1nc(Cl)nc2c1ncn2[C@@H]1O[C@H](CO)[C@@H](O)[C@@H]1F [Clofarabine] | -6.78 | -7.66 | -6.56 | -7.05 | -6.7 | -7.09 | -6.86 | -6.93 | -6.57 | 574 | 356 | 481 | 571 | 575 | 518 | -6.93 | -7.52 | -6.74 | -7.51 | -6.93
16 | COc1cc(N2CCC(N3CCN(C)CC3)CC2)ccc1Nc1ncc(Cl)c(Nc2ccccc2S(=O)(=O)C(C)C)n1 [NVP-TAE-684] | -5.56 | > -5 | > -5 | -5.56 | -5.47 | > -5 | -5.8 | -5.65 | -5.83 | 560 | 651 | 556 | 580 | 536 | 548 | -5.7 | -5.97 | -5.25 | -5.79 | -5.7
17 | C[C@@H]1C[C@H]2[C@@H]3CCC4=CC(=O)C=C[C@]4(C)[C@@]3(F)[C@@H](O)C[C@]2(C)[C@@]1(O)C(=O)CO [dexamethasone] | > -5 | > -5 | > -5 | > -5 | > -5 | > -5 | > -5 | > -5 | > -5 | 538 | 576 | 657 | 806 | 689 | 767 | > -5 | > -5 | > -5 | > -5 | > -5
18 | FC(F)(F)c1ccc(/C=C/c2nc(COc3ccc(CCCCn4ccnn4)cc3)co2)cc1 [Mubritinib] | -6.88 | -7.27 | > -5 | > -5 | > -5 | > -5 | > -5 | > -5 | > -5 | 534 | 431 | 604 | 611 | 561 | 560 | > -5 | -7.63 | -6.42 | > -5 | > -5
19 | NC(=O)NO [Hydroxyurea] | > -5 | > -5 | > -5 | > -5 | > -5 | > -5 | > -5 | > -5 | > -5 | 672 | 630 | 602 | 645 | 675 | 602 | > -5 | > -5 | > -5 | > -5 | > -5
20 | Nc1ccn([C@@H]2O[C@H](CO)[C@@H](O)C2(F)F)c(=O)n1 [Gemcitabine HCl] | < -8.48 | < -8.48 | < -8.48 | < -8.48 | < -8.48 | < -8.48 | < -8.48 | < -8.48 | < -8.48 | 119 | 6.6 | 3.55 | 71.4 | 66.3 | 2 | < -8.48 | < -8.48 | < -8.48 | < -8.48 | < -8.48
